Experimental data published in patent US20240277631A1, “SMALL MOLECULE DRUG (ELP-004) TO PREVENT BONE LESIONS CAUSED BY MULTIPLE MYELOMA” (West Virginia University Board of Governors on behalf of …, priority 2023, published 2024).

Key:
[1] = test system: human myeloma cells (U266 cells); assay: bone loss in the animal model of multiple myeloma; assay type: in vivo; conditions: mice engrafted with human U266 myeloma cells, 60 mg/kg ELP-004 at 72h intervals (summary statement)
Description: Shown are cross-sections of distal femur micro-computer tomographic images from mice treated with 60 mg/kg ELP-004 or vehicle control at 72h intervals after the engraftment of human 2×10^6 myeloma cells (U266 cells). Confirmation of engraftment was verified by measuring serum human IgE levels.

Murine BMSMCs = assay: LTB4-induced osteoclast fusion (TRAP, multinucleation, marker mRNA); assay type: cell-based; conditions: RANKL/LTB4
Description: FIGS. 6A-C show ELP-004 blocking LTB4-induced Osteoclast Fusion. (A-C) Murine BMSMCs were grown for up to 21 days in media supplemented with 50 ng/ml m-CSF, 1 ng/ml RANKL and 50 nM LTB4. Each experiment was repeated a minimum of three times. Cells were fixed and stained for Tartrate Resistant Acid Phosphatase (TRAP) activity at days 1, 7, 14 and 21. In schematic A, the number of TRAP positive osteoclast-like cells (out of 100 cells) were counted for each time point; TRAP intensity was also calculated. In schematic B, at each time point, the number of nuclei for each cell was counted and the average number of nuclei per cell for 100 cells is shown. In schematic C, mRNA expression of osteoclast markers such as TRAP5, VATPASE A3, VATPASE D2 and Calcitonin Receptor (CALCR) were measured at days 7 and 14 for both control and treated cells by RT-PCR. […] The expression patterns of osteoclast markers was unaffected by ELP-004, indicating selective inhibition of specific features of osteoclastogenesis.

[2] = pharmacokinetics in mice, i.v., p.o., s.c.; assay type: in vivo, female C57B16 mice
Description: ELP-004 was reconstituted in 20% hydroxypropyl-beta-cyclodextrin (HPbCD) and administered to female C57B16 mice (3/timepoint/route of administration) in the fed state. Following i.v. (2 mg/kg) […] from whole blood at 5, 15, and 30 min and at 1, 2, 4, 7, and 24 h. ELP-004 concentration was measured by LC-MS/MS. The data was fit to a two-compartment model and slopes for the a and B elimination were determined.
Depicted in table 1 is pharmacokinetic data of ELP-004 administered via i.v, p.o., and s.c. ELP-004 was reconstituted in 20% hydroxypropyl-beta-cyclodextrin (HPbCD) and administered to female C57B16 mice (3/timepoint/route of administration) in the fed state. Following i.v. (2 mg/kg), s.c. (2 mg/kg), or p.o. (10 mg/kg) administration, plasma was isolated from whole blood at 5, 15, and 30 min and at 1, 2, 4, 7, and 24 h. Plasma from p.o. was not isolated at 5 min. ELP-004 concentration was measured by LC-MS/MS (see below). The limit of quantification was 10 ng/ml and samples below that were not used in the analyses. PK parameters were calculated using Phoenix WinNonlin (Certara, NJ, USA).

CYP1A2 = target: T1, CYP1A2 (Homo sapiens, UniProt P05177); assay: stability with recombinant CYP1A2; assay type: in vitro ADME; conditions: recombinant CYP1A2, intrinsic clearance, read-out: Recombinant CYP CLINT
T1 sequence (P05177 1-516): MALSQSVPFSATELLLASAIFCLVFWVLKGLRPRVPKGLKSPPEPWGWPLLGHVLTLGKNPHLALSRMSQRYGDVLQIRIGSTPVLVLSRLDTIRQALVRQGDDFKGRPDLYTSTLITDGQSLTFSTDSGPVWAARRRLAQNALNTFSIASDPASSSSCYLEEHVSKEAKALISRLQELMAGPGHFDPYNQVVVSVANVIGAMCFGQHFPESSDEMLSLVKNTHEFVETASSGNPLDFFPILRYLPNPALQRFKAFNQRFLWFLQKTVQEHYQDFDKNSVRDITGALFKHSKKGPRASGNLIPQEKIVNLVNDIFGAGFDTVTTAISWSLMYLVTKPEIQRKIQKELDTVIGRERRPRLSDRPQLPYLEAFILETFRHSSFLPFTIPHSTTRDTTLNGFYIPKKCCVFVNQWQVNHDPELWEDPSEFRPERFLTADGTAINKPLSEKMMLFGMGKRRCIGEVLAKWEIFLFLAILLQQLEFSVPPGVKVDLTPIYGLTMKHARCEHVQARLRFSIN
Description: (§1) Depicted in table 2 is cytochrome P450 phenotyping and inhibition by ELP-004. The stability of ELP-004 was tested in the presence of recombinant enzymes CYP1A2, CYP2B6, CYP2C8, CYP2C9, CYP2C19, CYP2D6, and CYP3A4. ELP-004 (1 μM) was incubated with recombinant enzymes and NADPH. The amount of ELP-004 remaining at each timepoint was analyzed by LC-MS/MS. Incubations in control recombinant enzymes were also performed to assess non-enzymatic mediated stability. The intrinsic clearance of ELP-004 was determined. […] A decrease in the formation of the metabolite compared to vehicle control is used to calculate an IC50 value. Metabolite peak area ratio response as a percentage of vehicle control is plotted against the test compound concentration.

rats = assay: 1x escalating oral toxicity in rats (IITRI); assay type: in vivo, rat
[3] = test system: CYP isoforms CYP1A2, CYP2B6, CYP2C8, CYP2C9, CYP2C19, CYP2D6, and CYP3A4; assay: reversible CYP inhibition in human liver microsomes, summary over all isoforms; assay type: in vitro ADME; conditions: any CYP, concentration range 0.02-25 μM
Description: as §1

CYP2D6 = CYP2D6 (Homo sapiens, UniProt P10635); assay: stability with recombinant CYP2D6; assay type: in vitro ADME
Description: as §1

[4] = ability to cross the blood brain barrier
From the text: ELP-004 has been evaluated for its ability to cross the blood brain barrier. […] Other medications, such as but not limited to bupropion, are known to cause problems due to dopamine transporter binding.

CYP2D6, sequence (P10635 whole entry): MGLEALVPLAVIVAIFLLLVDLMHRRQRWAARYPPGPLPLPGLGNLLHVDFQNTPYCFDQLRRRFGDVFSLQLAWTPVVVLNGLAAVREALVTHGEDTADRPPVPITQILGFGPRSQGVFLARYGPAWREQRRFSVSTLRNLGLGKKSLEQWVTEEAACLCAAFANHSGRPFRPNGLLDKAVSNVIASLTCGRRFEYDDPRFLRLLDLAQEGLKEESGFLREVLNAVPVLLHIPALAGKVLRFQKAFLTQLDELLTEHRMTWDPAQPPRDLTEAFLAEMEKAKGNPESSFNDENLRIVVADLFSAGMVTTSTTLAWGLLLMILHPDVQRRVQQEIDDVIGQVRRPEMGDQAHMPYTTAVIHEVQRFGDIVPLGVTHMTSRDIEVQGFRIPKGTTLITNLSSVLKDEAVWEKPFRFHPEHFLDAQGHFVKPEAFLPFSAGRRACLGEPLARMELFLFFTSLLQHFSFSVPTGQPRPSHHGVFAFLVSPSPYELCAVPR

CCC(=O)N(C)c1ccc(Cl)c(Cl)c1 [ELP-004, N-(3,4-dichlorophenyl)-N-methylpropanamide]
development of bone lesions [1]: strongly suppressed
TRAP activity (Murine BMSMCs): completed abrogated
expression patterns of osteoclast markers (Murine BMSMCs): unaffected
multinucleation (Murine BMSMCs): severely attenuated
time until essentially eliminated ([2]; administered orally): ≤ 4 h
C0 ([2]; female, C57B16, mouse, plasma, iv, i.v. 2 mg/kg): 1220 ng/mL
microsomal CLint at 1 μM (CYP1A2): 2.85 µL/min/mg
oral LD50 (rats): > 2.5 g/kg body weight
reversible inhibition of CYP isoforms [3]: did not inhibit
microsomal CLint at 1 μM (CYP2D6; human, recombinant CYP2D6, intrinsic clearance, read-out: Recombinant CYP CLINT): < 0.154 µL/min/mg
metabolism by recombinant enzyme (CYP2D6; recombinant CYP2D6): not metabolized
ELP-004 t1/2 (CYP2D6; recombinant CYP2D6, 1 μM, NADPH): >3 h
crossing of the blood brain barrier [4]: does not cross the blood brain barrier
